Laboratory results as given in US20200317642A1, “AMINE-SUBSTITUTED HETEROCYCLIC COMPOUNDS AS EHMT2 INHIBITORS AND DERIVATIVES THEREOF” (Epizyme, Inc., priority 2017, published 2020).

Molecular target: T1, human EHMT2 913-1193 (Homo sapiens, UniProt Q96KQ7)
T1 construct: recombinant purified human EHMT2 913-1193, Viva; purchased Viva
T1 sequence (Q96KQ7 913-1193): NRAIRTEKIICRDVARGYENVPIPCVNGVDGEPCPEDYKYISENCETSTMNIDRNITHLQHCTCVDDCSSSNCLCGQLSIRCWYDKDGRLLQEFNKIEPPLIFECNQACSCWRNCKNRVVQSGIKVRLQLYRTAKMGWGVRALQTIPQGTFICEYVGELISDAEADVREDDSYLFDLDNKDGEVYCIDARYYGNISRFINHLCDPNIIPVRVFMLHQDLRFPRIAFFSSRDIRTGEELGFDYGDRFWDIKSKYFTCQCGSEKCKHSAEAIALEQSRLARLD
Assay: EHMT2 enzyme assay on histone peptide substrate
Type: biochemical
Settings: Table 3; histone H3 1-15 peptide, balanced conditions; read-out: EHMT2 PEP (IC50 μM)
Text: Recombinant purified human EHMT2 913-1193 ([…]) synthesized by Viva was used for all experiments. Biotinylated histone peptides were synthesized by Biopeptide and HPLC-purified to >95% purity. Streptavidin Flashplates and seals were purchased from PerkinElmer and 384 Well V-bottom Polypropylene Plates were from Greiner. ^3H-labeled S-adenosylmethionine (^3H-SAM) was obtained from American Radiolabeled Chemicals with a specific activity of 80 Ci/mmol. Unlabeled SAM and S-adenosylhomocysteine (SAH) were obtained from American Radiolabeled Chemicals and Sigma-Aldrich respectively. Flashplates were washed in a Biotek ELx-405 with 0.1% Tween. 384-well Flashplates and 96-well filter binding plates were read on a TopCount microplate reader (PerkinElmer). Compound serial dilutions were performed on a Freedom EVO (Tecan) and spotted into assay plates using a Thermo Scientific Matrix PlateMate (Thermo Scientific). Reagent cocktails were added by Multidrop Combi (Thermo Scientific).
10-point curves of test compounds were made on a Freedom EVO (Tecan) using serial 3-fold dilutions in DMSO, beginning at 2.5 mM (final top concentration of compound was […] and the DMSO was 2%). A 1 μL aliquot of the inhibitor dilution series was spotted in a polypropylene 384-well V-bottom plate (Greiner) using a Thermo Scientific Matrix PlateMate (Thermo Scientific). The 100% inhibition control consisted of 1 mM final concentration of the product inhibitor S-adenosylhomocysteine (SAH, Sigma-Aldrich). Compounds were incubated for 30 minutes with 40 μL per well of 0.031 nM EHMT2 (recombinant purified human EHMT2 913-1193, Viva) in 1× assay buffer (20 mM Bicine [pH 7.5], 0.002% Tween 20, 0.005% Bovine Skin Gelatin and 1 mM TCEP). 10 μL per well of substrate mix comprising assay buffer, ^3H-SAM (^3H-labeled S-adenosylmethionine, American Radiolabeled Chemicals, specific activity of 80 Ci/mmol), unlabeled SAM (American Radiolabeled Chemicals), and peptide representing histone H3 residues 1-15 containing C-terminal biotin (appended to a C-terminal amide-capped lysine, synthesized by Biopeptide and HPLC-purified to greater than 95% purity) were added to initiate the reaction (both substrates were present in the final reaction mixture at their respective Km values, an assay format referred to as “balanced conditions”). Reactions were incubated for 60 minutes at room temperature and quenched with 10 μL per well of 400 μM unlabeled SAM, then transferred to a 384-well streptavidin Flashplate (PerkinElmer) and washed in a Biotek ELx-405 well washer with 0.1% Tween after 60 minutes. 384-well Flashplates were read on a TopCount microplate reader (PerkinElmer).

| Compound | IC50 [µM] |
| --- | --- |
| CNc1cc(C)nc(Nc2ccc(OC)c(C#CCN3CCNCC3)c2)n1 [Compound 28, 2-N-[4-methoxy-3-[3-(piperazin-1-yl)prop-1-yn-1-yl]phenyl]-4-N,6-dimethylpyrimidine-2,4-diamine] | 0.1 to 1 |
| CNc1cc(C)nc(Nc2ccc(Cl)c(C(=O)Nc3ncco3)c2)n1 [Compound 6] | 1 to 10 |
| CNc1cc(C)nc(Nc2ccc(Cl)c(C(=O)NCC3COC3)c2)n1 [Compound 2, 2-chloro-5-[[4-methyl-6-(methylamino)pyrimidin-2-yl]amino]-N-(oxetan-3-ylmethyl)benzamide] | > 10 |
| CNc1cc(C)nc(Nc2ccc(Cl)c(C(=O)Nc3cscn3)c2)n1 [Compound 13] | 1 to 10 |
| CNc1cc(C)nc(Nc2ccc(Cl)c(C(=O)NCC3CC3)c2)n1 [Compound 4] | > 10 |
| CNc1cc(C)nc(Nc2ccc(C3CC3)c(CNCCN3CCCC3)c2)n1 [Compound 11, 2-N-[4-cyclopropyl-3-([[2-(pyrrolidin-1-yl)ethyl]amino]methyl)phenyl]-4-N,6-dimethylpyrimidine-2,4-diamine] | 0.1 to 1 |
| CNc1cc(C)nc(Nc2ccc(Br)c(CNCCN3CCCC3)c2)n1 [Compound 1, 2-N-[4-bromo-3-([[2-(pyrrolidin-1-yl)ethyl]amino]methyl)phenyl]-4-N,6-dimethylpyrimidine-2,4-diamine] | 0.1 to 1 |
| CNc1cc(C)nc(Nc2ccc(Cl)c(C(=O)Nc3cocn3)c2)n1 [Compound 14, 2-chloro-5-[[4-methyl-6-(methylamino)pyrimidin-2-yl]amino]-N-(1,3-oxazol-4-yl)benzamide] | > 10 |
| CNc1cc(C)nc(Nc2ccc(OC)c(CNCCN3CCC[C@H]3C)c2)n1 [Compound 31] | 0.1 to 1 |
| CNc1cc(C)nc(Nc2ccc(OC)c(CNCCN3CC(C)C3)c2)n1 [Compound 35] | > 10 |
| CNc1cc(C)nc(Nc2ccc(C)c(C(=O)Nc3ncn(C)n3)c2)n1 [Compound 33] | > 10 |
| CNc1cc(C)nc(Nc2ccc(OC)c(CNCCN3CCC[C@@H]3C)c2)n1 [Compound 32] | > 10 |
| CNc1cc(C)nc(Nc2ccc(Cl)c(C(=O)Nc3ccccc3)c2)n1 [Compound 10] | > 10 |
| CNc1cc(C)nc(Nc2ccc(Cl)c(C(=O)NCC3CCC3)c2)n1 [Compound 3] | 1 to 10 |
| CCCCNC(=O)c1cc(Nc2nc(C)cc(NC)n2)ccc1Cl [Compound 9] | 1 to 10 |
| CNc1cc(C)nc(Nc2ccc(Cl)c(C(=O)NC3CCOCC3)c2)n1 [Compound 8] | > 10 |
| CNc1cc(C)nc(Nc2ccc(Cl)c(C(=O)Nc3cccnn3)c2)n1 [Compound 5] | > 10 |
| CNc1cc(C)nc(Nc2ccc(Cl)c(C(=O)Nc3cn(C)cn3)c2)n1 [Compound 15] | > 10 |
| CNc1cc(C)nc(Nc2ccc(Cl)c(C(=O)NCCN3CCCC3)c2)n1 [Compound 7] | 0.1 to 1 |

The remaining lines, values ahead:

| IC50 [µM] | Compound |
| --- | --- |
| > 10 | CNc1cc(C)nc(Nc2ccc(OC)c(C#CC[N+](C)(C)CCN)c2)n1 [Compound 45] |
| 1 to 10 | CNc1cc(C)nc(Nc2ccc(OC)c(CN[C@H](C)CN3CCCC3)c2)n1 [Compound 48] |
| > 10 | CNc1cc(C)nc(Nc2ccc(OC)c(OC[C@H](O)CN3CC4(CC4)C3)c2)n1 [Compound 41] |
| > 10 | CNc1cc(C)nc(Nc2ccc(OC)c(OC[C@H](O)CN3CCCCC3)c2)n1 [Compound 40] |
| 0.1 to 1 | CNc1cc(C)nc(Nc2ccc(OC)c(CNCCN3CC[C@H](C)C3)c2)n1 [Compound 39] |
| 1 to 10 | CNc1cc(C)nc(Nc2ccc(OC)c(CNCCN3CC[C@@H](C)C3)c2)n1 [Compound 38] |
| 0.1 to 1 | CNc1cc(C)nc(Nc2ccc(OC)c(CNC[C@@H](C)N3CCCC3)c2)n1 [Compound 42] |
| > 10 | CNc1cc(C)nc(Nc2ccc(OC)c(CNC[C@H](C)N3CCCC3)c2)n1 [Compound 43] |
| 1 to 10 | CNc1cc(C)nc(Nc2ccc(OC)c(C#CCNCCN(C)C)c2)n1 [Compound 49] |
| 1 to 10 | CNc1cc(C)nc(Nc2ccc(C)c(C(=O)Nc3c[nH]cn3)c2)n1 [Compound 37] |
| > 10 | CNc1cc(C)nc(Nc2ccc(C)c(C(=O)Nc3cn(C4CC4)cn3)c2)n1 [Compound 36] |

Same assay, conditions: Table 3A; histone H3 1-15 peptide, balanced conditions; read-out: EHMT2 (IC50 μM)

| Compound | IC50 [µM] |
| --- | --- |
| CNCc1cnn(-c2c(OC)ccc(Nc3nc(NC)cc(C(C)C)n3)c2F)c1 [Compound A8, N^2-(2-fluoro-4-methoxy-3-[4-[(methylamino)methyl]-1H-pyrazol-1-yl]phenyl)-N^4-methyl-6-(propan-2-yl)pyrimidine-2,4-diamine] | 0.01 to 0.1 |
| CNC1=Nc2cc(-n3cc(CN4CCC4)cn3)c(Cl)cc2C12CCC2 [Compound A17, 6′-(4-(azetidin-1-ylmethyl)-1H-pyrazol-1-yl)-5′-chloro-N-methylspiro[cyclobutane-1,3′-indol]-2′-amine] | 0.01 to 0.1 |
| CNCc1cn(-c2c(Cl)ccc(Nc3nc(C)cc(NC)n3)c2Cl)nn1 [Compound A13, N2-(2,4-dichloro-3-(4-((methylamino)methyl)-1H-1,2,3-triazol-1-yl)phenyl)-N4,6-dimethylpyrimidine-2,4-diamine] | < 0.01 |
| CNc1cc(C)nc(Nc2ccc(OC)c(-n3cc4c(n3)CCNC4)c2F)n1 [Compound A19, N2-(2-fluoro-4-methoxy-3-(4,5,6,7-tetrahydro-2H-pyrazolo[4,3-c]pyridin-2-yl)phenyl)-N4,6-dimethylpyrimidine-2,4-diamine] | 0.1 to 1 |

Other lines, results leading:

| IC50 [µM] | Compound |
| --- | --- |
| 0.1 to 1 | CNC1=Nc2cc(-c3cc4n(n3)CCNC4)c(Cl)cc2C12CCC2 [Compound A10, 5′-chloro-N-methyl-6′-(4,5,6,7-tetrahydropyrazolo[1,5-a]pyrazin-2-yl)spiro[cyclobutane-1,3′-indol]-2′-amine] |
| 0.01 to 0.1 | CNCc1cn(-c2c(OC)cc3c(c2F)N=C(N)C32CCC2)nn1 [Compound A22] |
| 0.01 to 0.1 | CNCc1cn(-c2cc3c(cc2Cl)C2(CCC2)C(NC)=N3)nn1 [Compound A11, 5′-chloro-N-methyl-6′-(4-((methylamino)methyl)-1H-1,2,3-triazol-1-yl)spiro[cyclobutane-1,3′-indol]-2′-amine] |
| 0.1 to 1 | CCNCc1cnn(-c2c(OC)ccc(Nc3nc(C)cc(NC)n3)c2F)c1 [Compound A7] |
| 0.01 to 0.1 | CNCc1cn(-c2cc3c(cc2Cl)C2(CCC2)C(N)=N3)nn1 [Compound A15, 5′-chloro-6′-(4-((methylamino)methyl)-1H-1,2,3-triazol-1-yl)spiro[cyclobutane-1,3′-indol]-2′-amine] |
| < 0.01 | CNC1=Nc2cc(-n3cc([C@H]4CCCN4)nn3)c(Cl)cc2C12CCC2 [Compound A2R, (R)-5′-chloro-N-methyl-6′-(4-(pyrrolidin-2-yl)-1H-1,2,3-triazol-1-yl)spiro[cyclobutane-1,3′-indol]-2′-amine] |
| 0.1 to 1 | CNC1=Nc2cc(-n3cc([C@@H]4CCCN4)nn3)c(Cl)cc2C12CCC2 [Compound A2S, (S)-5′-chloro-N-methyl-6′-(4-(pyrrolidin-2-yl)-1H-1,2,3-triazol-1-yl)spiro[cyclobutane-1,3′-indol]-2′-amine] |
| > 1 | CNC1=Nc2cc(-c3cc4n(n3)CCN(C)C4)c(Cl)cc2C12CCC2 [Compound A12, 5′-chloro-N-methyl-6′-(5-methyl-4,5,6,7-tetrahydropyrazolo[1,5-a]145yrazine-2-yl)spiro[cyclobutane-1,3′-indol]-2′-amine] |
| < 0.01 | CNCc1cn(-c2cc(Nc3nc(C)cc(NC)n3)ccc2Cl)nn1 [Compound A1] |
| 0.01 to 0.1 | CNCc1cc(-c2c(OC)ccc(Nc3nc(C)cc(NC)n3)c2F)no1 [Compound A14, N2-(2-fluoro-4-methoxy-3-[5-[(methylamino)methyl]-1,2-oxazol-3-yl]phenyl)-N4,6-dimethylpyrimidine-2,4-diamine] |
| 0.01 to 0.1 | CNC1=Nc2cc(-n3cc(C4CCCN4)nn3)c(Cl)cc2C12CCC2 (centres unmarked) [Compound A2] |
| 0.01 to 0.1 | CNc1cc(C)nc(Nc2ccc(OC)c(-n3cc([C@H]4CCCN4)nn3)c2F)n1 [Compound A4R] |
| 0.1 to 1 | CNc1cc(C)nc(Nc2ccc(OC)c(-n3cc(CNC(C)C)cn3)c2F)n1 [Compound A5] |
